Test results from patent US10597388B2, “Pyridazinone herbicides” (FMC CORPORATION, priority 2014, dated 2020).

Key:
Assay type in all cases: in vivo
[1] = system: barnyardgrass (Echinochloa crus-galli); test: Test A greenhouse herbicide test, pre- and postemergence
Procedure, shortened: (§1)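 Seeds sown in loam–sand blend got a preemergence directed soil spray of compound in non-phytotoxic solvent with surfactant. Postemergence treatment was given at 2–10 cm, one- to two-leaf stage. After ~10 d in greenhouse, injury was rated visually vs untreated controls, 0 (no effect) to 100 (complete control).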

corn (Zea mays) = test: as above; settings: Postemergence
Procedure, shortened: as §1

[2] = system: ryegrass, Italian (Italian ryegrass, Lolium multiflorum); test: as above
Procedure, shortened: as §1

[3] = system: blackgrass (Alopecurus myosuroides); test: Test A greenhouse herbicide test, postemergence
Procedure, shortened: (§2)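 Greenhouse postemergence test: formulated chemicals sprayed on one- to two-leaf plants (2 to 10 cm), grown in loam soil blended with sand. Injury assessed visually about 10 d later against untreated controls, scored 0 (no effect) to 100 (complete control).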

[4] = system: galium (catchweed bedstraw, Galium aparine); test: Test A greenhouse herbicide test, postemergence
Procedure, shortened: as §2

[5] = system: barnyardgrass (Echinochloa crus-galli); test: Test B flooded paddy test; settings: 250 g ai/ha, Flood; visual rating on scale of 0 to 100 where 0 is no effect and 100 is complete control; 13 to 15 d after treatment
Procedure, shortened: (§3)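 Plants at the 2-leaf stage were flooded to 3 cm above soil, and test compounds were applied directly into the paddy water, which was held at that depth throughout. After 13 to 15 d in a greenhouse, injury was rated visually against untreated controls on a 0–100 scale (0 no effect, 100 complete control).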

[6] = system: ducksalad (Heteranthera limosa); test: Test B flooded paddy test; settings: 250 g ai/ha, Flood; visual rating on scale of 0 to 100 where 0 is no effect and 100 is complete control; 13 to 15 d after treatment
Procedure, shortened: as §3

rice (Oryza sativa) = test: Test B flooded paddy test; settings: 250 g ai/ha, Flood; visual rating on scale of 0 to 100 where 0 is no effect and 100 is complete control; 13 to 15 d after treatment
Procedure, shortened: as §3

[7] = system: sedge, umbrella (small-flower umbrella sedge, Cyperus difformis); test: Test B flooded paddy test; settings: 250 g ai/ha, Flood; visual rating on scale of 0 to 100 where 0 is no effect and 100 is complete control; 13 to 15 d after treatment
Procedure, shortened: as §3

kochia (Kochia scoparia) = test: Test C greenhouse herbicide test, postemergence
Text: (§4) At the same time, plants selected from these crop and weed species and also chickweed (common chickweed, Stellaria media), kochia (Kochia scoparia), and oat, wild (wild oat, Avena fatua), were planted in pots containing Redi-Earth® planting medium (Scotts Company, 14111 Scottslawn Road, Marysville, Ohio 43041) comprising spaghnum peat moss, vermiculite, wetting agent and starter nutrients and treated with postemergence applications of test chemicals formulated in the same manner. Plants ranged in height from 2 to 18 cm (1- to 4-leaf stage) for postemergence treatments. Treated plants and controls were maintained in a greenhouse for 13 to 15 d, after which time all species were compared to controls and visually evaluated. Plant response ratings, summarized in Table C, are based on a scale of 0 to 100 where 0 is no effect and 100 is complete control. A dash (-) response means no test result.

[8] = system: oat, wild (wild oat, Avena fatua); test: Test C greenhouse herbicide test, postemergence
Text: as §4

[9] = Postemergence, 125 g ai/ha, 0 to 100 scale where 0 is no effect and 100 is complete control
[10] = Postemergence, 500 g ai/ha, visual rating after approx. 10 d, 0 to 100 scale (0 no effect, 100 complete control)
[11] = Preemergence, 125 g ai/ha, 0 to 100 scale where 0 is no effect and 100 is complete control
[12] = Preemergence, 500 g ai/ha, 0 to 100 scale where 0 is no effect and 100 is complete control
[13] = 125 g ai/ha, 0 to 100 scale where 0 is no effect and 100 is complete control
[14] = 500 g ai/ha, visual rating after approx. 10 d, 0 to 100 scale (0 no effect, 100 complete control)
[15] = Postemergence, 31 g ai/ha, scale 0 to 100 (0 no effect, 100 complete control)
[16] = Postemergence, 62 g ai/ha, 0 to 100 scale (0 no effect, 100 complete control)
[17] = Postemergence, 250 g ai/ha, scale 0 to 100, 0 no effect, 100 complete control, 13 to 15 d
[18] = postemergence, 125 g ai/ha, scale 0 to 100, 0 no effect, 100 complete control
[19] = Postemergence, 8 g ai/ha, scale 0 to 100 (0 no effect, 100 complete control)
[20] = Postemergence, 16 g ai/ha, scale 0 to 100 (0 no effect, 100 complete control)
[21] = Postemergence, 125 g ai/ha, 0 to 100 scale, 0 no effect, 100 complete control
[22] = Preemergence, 125 g ai/ha, visual injury rating, 0 to 100 scale (0 no effect, 100 complete control), approx. 10 d
[23] = 125 g ai/ha, 0 to 100 scale, 0 no effect, 100 complete control

SMILES | Plant response rating, Barnyardgrass [1, 9] | Plant response rating, Barnyardgrass [1, 10] | Barnyardgrass plant response rating [1, 11] | Plant response rating, Barnyardgrass [1, 12] | Plant response rating, Corn (corn (Zea mays); [13]) | Plant response rating, Corn (corn (Zea mays); [14]) | Plant response rating, Ryegrass, Italian [2, 9] | Plant response rating, Ryegrass, Italian [2, 10] | Plant response rating, Ryegrass, Italian [2, 12] | Plant response rating, Blackgrass [3, 13] | Plant response rating, Blackgrass [3, 14] | Plant response rating, Galium [4, 13] | Plant response rating, Galium [4, 14] | Plant response rating, Barnyardgrass [5] | Plant response rating, Ducksalad [6] | Plant response rating, Rice (rice (Oryza sativa)) | Plant response rating, Sedge, Umbrella [7] | Plant response rating, Kochia (kochia (Kochia scoparia); [15]) | Kochia plant response rating (kochia (Kochia scoparia); [16]) | Plant response rating, Oat, Wild [8, 15] | also measured
CCC(=O)Oc1c(C)nn(C)c(=O)c1-c1ccc(Br)c2ccccc12 [Compound 134] | 20 | 60 | 20 | 90 | 20 | 50 | 100 | 100 | 100 | 60 | 70 | 100 | 100 | 0 | 0 | 0 | 0 | 95 | 100 | 90 | Ryegrass, Italian plant response rating [2, 11]: 100; Plant response rating, Kochia (kochia (Kochia scoparia); [17]): 100; Kochia plant response rating (kochia (Kochia scoparia); [18]): 100; Oat, Wild plant response rating [8, 16]: 90; Plant response rating, Oat, Wild [8, 17]: 95; Oat, Wild plant response rating [8, 18]: 95
COC(=O)Oc1c(OC)nn(C)c(=O)c1-c1c(C)ccc2ccccc12 [Compound 136] | 20 | 100 | 10 | 80 | 30 | 30 | 90 | 100 | 100 | 60 | 90 | 100 | 100 | 0 | 0 | 0 | 0 | 95 | 95 | 50 | Ryegrass, Italian plant response rating [2, 11]: 90; Plant response rating, Kochia (kochia (Kochia scoparia); [17]): 100; Kochia plant response rating (kochia (Kochia scoparia); [18]): 100; Oat, Wild plant response rating [8, 16]: 75; Plant response rating, Oat, Wild [8, 17]: 90; Oat, Wild plant response rating [8, 18]: 85
Cc1nn(C)c(=O)c(-c2ccc(Cl)c3ccccc23)c1O [Compound 139] | 20 | 100 | 20 | 100 | 30 | 40 | 100 | 100 | 100 | 60 | 90 | 100 | 100 | 0 | 0 | 0 | 0 | 95 | 100 | 90 | Plant response rating, Kochia (kochia (Kochia scoparia); [17]): 100; Kochia plant response rating (kochia (Kochia scoparia); [18]): 100; Oat, Wild plant response rating [8, 16]: 90; Plant response rating, Oat, Wild [8, 17]: 90; Oat, Wild plant response rating [8, 18]: 90
Cc1ccc2ccc(Cl)cc2c1-c1c(O)c(C)nn(C)c1=O [Compound 144] | 100 | 100 | 90 | 100 | 60 | 90 | 100 | 100 | 100 | 90 | 100 | 100 | 100 | 30 | 40 | 30 | 0 | 98 |  | 90 | Kochia plant response rating (kochia (Kochia scoparia); [19]): 90; Plant response rating, Kochia (kochia (Kochia scoparia); [19]): 90; Plant response rating, Kochia (kochia (Kochia scoparia); [20]): 98; Oat, Wild plant response rating [8, 19]: 80; Plant response rating, Oat, Wild [8, 19]: 90; Plant response rating, Oat, Wild [8, 20]: 90
COC(=O)Oc1c(C)nn(C)c(=O)c1-c1ccc(Br)c2ccccc12 [Compound 145] | 20 | 90 | 20 | 90 | 20 | 60 | 100 | 100 | 100 | 40 | 80 | 100 | 100 | 0 | 0 | 0 | 0 | 95 | 98 | 95 | Plant response rating, Kochia (kochia (Kochia scoparia); [17]): 100; Kochia plant response rating (kochia (Kochia scoparia); [18]): 100; Oat, Wild plant response rating [8, 16]: 95; Plant response rating, Oat, Wild [8, 17]: 100; Oat, Wild plant response rating [8, 18]: 95
CC(=O)Oc1c(Cl)nn(C)c(=O)c1-c1c(C)sc2ccc(C(F)(F)F)cc12 [Compound 152] |  | 40 |  | 40 |  | 0 |  | 90 | 100 |  | 30 |  | 70 | 0 | 0 | 0 | 0 |  |  |  | Plant response rating, Barnyardgrass [1, 21]: 20; Plant response rating, Barnyardgrass [1, 22]: 40; Plant response rating, Corn (corn (Zea mays); [23]): 0; Plant response rating, Ryegrass, Italian [2, 21]: 30; Plant response rating, Ryegrass, Italian [2, 22]: 90; Plant response rating, Blackgrass [3, 23]: 20; Plant response rating, Galium [4, 23]: 60
